Results taken from patent US20210284621A1 (priority 2018, published 2021).
“Also recorded” adds a separate entry of the source. Where two headings read alike, the source gives them in different places.

Experiments:
[1] = Pharmacokinetics after PO dose in mice; format: in vivo, Male C57BL/6 mice; conditions: 10 mg/kg PO; for AUC(0-inf) / Cmax / MRT inf / Tmax / half-life / AUC(0-t): male, C57BL/6, mouse, in vivo; for AUC(0-t): read-out: AUC0-24 hr
[2] = target: T1, CB2 receptor (Homo sapiens, UniProt P34972); assay: cAMP Assay #2: Hit Hunter cAMP assay, Gi-coupled agonist activity, CB2; format: cell-based; parameters: host or cells: cAMP Hunter cell lines; conditions: for CB2 fold selectivity: CB1 EC50 / CB2 EC50
[3] = target: T1, CB2 receptor; assay: cell-based; parameters: host or cells: cAMP Hunter cell lines
In short: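 PathHunter β-Arrestin enzyme fragment complementation cells, EA-tagged β-Arrestin and PK-tagged receptor, exposed to compound for 90 to 180 minutes at 37° C. or room temperature, 1% vehicle. Chemiluminescence read 1 h after detection reagent; agonist % activity relative to vehicle and MAX control ligand.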

[4] = target: CB1 receptor (Homo sapiens, UniProt P21554); assay: cell-based; parameters: host or cells: PathHunter cell lines
[5] = target: T1, CB2 receptor; assay: cAMP Assay #1: CB2 adenylylcyclase assay in CHO cells; format: cell-based; parameters: expressed in transfected cells; host or cells: CHO cells
In short: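 Agonism measured as cAMP production in CHO cells expressing human recombinant CB2, incubated with compound for 10 min at 37 °C. EC50 obtained by Hill-equation non-linear regression of mean replicate concentration-response data.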

[6] = system: 12 systems of human primary cells; assay: BioMAP Diversity PLUS phenotypic screen; format: cell-based; conditions: 3.3 μM; for Anti-proliferation: cell type in which anti-proliferative effect was seen; for Immune modulation, cell surface and tissue remodeling biomarkers: changes at least 1.5-fold from vehicle control
Experimental: Compounds of the invention were assayed for their effects on 148 biomarkers of inflammation, immune modulation and tissue remodeling in the BioMAP® Diversity PLUS® (DiscoverX) platform designed to model aspects of human diseases in vitro (Kunkel 2004, Berg 2006, Melton 2013).
The example compounds (3.3 μM) in Table 8 induced increases or decreases in the levels of the indicated 20 biomarkers, which are at least 1.5-fold change from vehicle control and are outside the significance prediction envelop. All compounds presented in Table 8 were not cytotoxic at the concentration tested.

[7] = Hit Hunter cAMP, 25 μM forskolin, control ligand CP55,940, read-out: CB2, EC50
[8] = PathHunter agonist mode, read-out: CB2 Activity (β-Arrestin)
[9] = PathHunter agonist mode, read-out: CB1 Activity (β-Arrestin)
[10] = CHO cells, 10 min 37° C., relative to 100 nM WIN 55212-2, read-out: CB2 Activity EC50 (cAMP)

CB1 receptor, sequence (P21554 whole entry): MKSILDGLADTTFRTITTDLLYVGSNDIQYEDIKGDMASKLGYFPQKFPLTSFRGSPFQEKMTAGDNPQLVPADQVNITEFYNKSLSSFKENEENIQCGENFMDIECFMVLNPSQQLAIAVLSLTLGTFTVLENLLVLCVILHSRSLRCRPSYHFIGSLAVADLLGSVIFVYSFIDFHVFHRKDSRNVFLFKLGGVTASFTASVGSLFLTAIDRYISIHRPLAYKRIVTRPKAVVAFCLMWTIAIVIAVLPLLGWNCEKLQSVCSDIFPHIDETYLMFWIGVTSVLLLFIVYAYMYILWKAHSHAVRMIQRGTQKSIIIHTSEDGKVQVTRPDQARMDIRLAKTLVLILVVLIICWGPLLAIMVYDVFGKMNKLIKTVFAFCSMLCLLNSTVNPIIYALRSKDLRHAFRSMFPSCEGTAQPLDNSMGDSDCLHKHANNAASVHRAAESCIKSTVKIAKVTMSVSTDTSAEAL
T1 sequence (P34972 whole entry): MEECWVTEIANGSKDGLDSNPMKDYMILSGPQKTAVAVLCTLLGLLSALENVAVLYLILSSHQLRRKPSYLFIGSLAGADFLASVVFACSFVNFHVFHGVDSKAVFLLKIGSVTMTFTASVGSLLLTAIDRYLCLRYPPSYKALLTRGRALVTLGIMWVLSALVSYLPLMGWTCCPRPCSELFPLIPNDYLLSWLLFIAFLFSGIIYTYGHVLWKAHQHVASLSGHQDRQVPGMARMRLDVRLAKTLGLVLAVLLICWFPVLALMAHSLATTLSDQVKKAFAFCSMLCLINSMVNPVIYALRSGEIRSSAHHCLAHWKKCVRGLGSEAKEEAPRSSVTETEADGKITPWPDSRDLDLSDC

Row | Compound | F [1] [%] | Tlag [1] [h] | AUC(0-inf) [1] [ng·h/mL] | Cmax [1] [ng/mL] | MRT inf [1] [h] | Tmax [1] [h] | half-life [1] [min] | AUC(0-t) [1] [ng·h/mL] | EC50 [2] [nM] | CB2 fold selectivity ([2]; Hit Hunter cAMP) | EC50 [3] [nM] | EC50 [4] [nM] | EC50 [5] [nM] | EC50 [2, 7] [nM] | EC50 [3, 8] [nM] | EC50 [4, 9] [nM] | EC50 [5, 10] [nM] | Anti-proliferation [6] | Immune modulation, cell surface and tissue remodeling biomarkers [6]
1 | CCCCCCC(C)(C)c1cc(O)c2c(c1)OC(C)(C)[C@@H]1CC=C(C(=O)O)C[C@@H]21 [AJA, (6aR,10aR)-1-hydroxy-6,6-dimethyl-3-(2-methyl-2-octanyl)-6a,7,10,10a-tetrahydro-6H-benzo[c]chromene-9-carboxylic acid, reference compound] | 70.79 | 0 | 17800 | 3860 | 3.42 | 1 | 131 | 17800 | 7 | 11.0 | 11 | 1240 | 21 | – | – | – | – | – | –
2 | CCCCCCC(C)(C)c1cc(O)c2c(c1)OC(C)(C)[C@@H]1CC=C(C(=O)NC(C)(C)CCO)C[C@@H]21 [Compound 15, (6aR,10aR)-1-Hydroxy-N-(4-hydroxy-2-methylbutan-2-yl)-6,6-dimethyl-3-(2-methyloctan-2-yl)-6a,7,10,10a-tetrahydro-6H-benzo[c]chromene-9-carboxamide] | 37.4 | 0.00 | 5890 | 779 | 5.07 | 4 | 159 | 5870 | – | 164.1 | – | – | – | 2.7 | > 3000 | > 3000 | 7.5 | – | –
3 | CCCCCCC(C)(C)c1cc(O)c2c(c1)OC(C)(C)[C@@H]1CC=C(C(=O)NC(CO)CO)C[C@@H]21 [Compound 25, (6aR,10aR)-N-(1,3-Dihydroxypropan-2-yl)-1-hydroxy-6,6-dimethyl-3-(2-methyloctan-2-yl)-6a,7,10,10a-tetrahydro-6H-benzo[c]chromene-9-carboxamide] | – | – | – | – | – | – | – | – | – | 40.0 | – | – | – | 9 | 10 | > 3000 | 11 | Dermal fibroblasts | Reduced VCAM-1, PAI-I, IL-10, and M-CSF; increased MMP-1
4 | CCCCCCC(C)(C)c1cc(O)c2c(c1)OC(C)(C)[C@@H]1CC=C(C(=O)OC(C)C)C[C@@H]21 [Compound 29, Isopropyl (6aR,10aR)-1-hydroxy-6,6-dimethyl-3-(2-methyloctan-2-yl)-6a,7,10,10a-tetrahydro-6H-benzo[c]chromene-9-carboxylate] | 3.98 | 0.00 | 1420 | 203 | 6.2 | 6 | 253 | 1400 | 1 | 9.6 | – | – | 2.3 | – | 3 | 47 | – | Dermal fibroblasts | Reduced Eotaxin-3, IL-8, E-selectin, P-selectin, VCAM, EGFR,; also recorded: IL-1α, IP-10, and PAI-I
5 | CCCCCCC(C)(C)c1cc(O)c2c(c1)OC(C)(C)[C@@H]1CC=C(C(=O)NC[C@@H](O)CO)C[C@@H]21 [Compound 55, (6aR,10aR)-N—((R)-2,3-Dihydroxypropyl)-1-hydroxy-6,6-dimethyl-3-(2-methyloctan-2-yl)-6a,7,10,10a-tetrahydro-6H-benzo[c]chromene-9-carboxamide] | 30.33 | 0 | 7200 | 882 | 6.4 | 1 | 163 | 7170 | – | 30.5 | – | – | – | 5.7 | 6.9 | > 3000 | 5.2 | Dermal fibroblasts | –
6 | CCCCCCC(C)(C)c1cc(O)c2c(c1)OC(C)(C)[C@@H]1CC=C(C(=O)NC[C@H](O)CO)C[C@@H]21 [Compound 56, (6aR,10aR)-N—((S)-2,3-Dihydroxypropyl)-1-hydroxy-6,6-dimethyl-3-(2-methyloctan-2-yl)-6a,7,10,10a-tetrahydro-6H-benzo[c]chromene-9-carboxamide] | 23.11 | 0 | 4430 | 902 | 4.89 | 1 | 158 | 4420 | – | 30.0 | – | – | – | 8.4 | 6.9 | > 3000 | 8.7 | – | –
